Experimental data: patent publication US10131663B2, “Chemical compounds” (AstraZeneca AB, priority 2016, dated 2018)
In brackets after ≈: the same amount, converted by molar mass.

Experiments:
[1] = Human Caco-2 bidirectional permeability A to B and B to A; format: in vitro ADME; settings: for Papp at 2 h: Caco-2, 2 hours, pH 7.4; for efflux ratio at 2 h: Caco-2, pH 7.4
[2] = Human plasma protein binding (equilibrium dialysis); format: in vitro ADME; settings: dialysis 18 hours
Summary of the method: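 Fraction unbound (fu %) in human plasma, from LC/MSMS of plasma and buffer sides (7-point plasma calibration) after 18 h rapid equilibrium dialysis. Single determinations, with compounds pooled up to 10 per plasma pool.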

[3] = Thermodynamic solubility (shake-flask); format: physicochemical; settings: aqueous phosphate buffer, 25 °C, pH 7.4, aqueous buffer, thermodynamic from solid, aqueous phosphate buffer pH 7.4, 24 hours
Summary of the method: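 Shake-flask method starting from 10 mM DMSO stocks, which are dried before use. Residue equilibrated 24 h at 25° C. in aqueous phosphate buffer, pH 7.4. Dissolved fraction separated and quantified by UPLC/MS/MS, with QC samples in each run.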

[4] = log D (shake flask, 1-octanol/aqueous buffer); format: physicochemical
Summary of the method: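 Distribution between 1-octanol and aqueous buffer at pH 7.4 was measured by shake flask, with compounds run in mixtures of ten. Relative concentrations in each phase were quantified by UPLC with quantitative MS. Caffeine served as a low-log D QC sample in all runs.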

[5] = molecular target: T1, Estrogen Receptor (ERα) in MCF-7 cells (Homo sapiens (Human), UniProt P03372); assay: Western blotting assay, ER down-regulation in MCF-7; format: cell-based; settings: 100 nM compound, 48 h, normalised to 100 nM fulvestrant
Summary of the method: (§1)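 Cells treated with compounds at 100 nM or 0.1% DMSO vehicle for 48 h at 37 °C, then lysed; ERα detected by western blot with anti-ERα (SP1) rabbit monoclonal. Down-regulation normalised to vehicle (0%) and 100 nM fulvestrant (100%) run on the same gel.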

[6] = molecular target: T1, Estrogen Receptor (ERα) in MCF-7 cells; assay: MCF-7 ER down-regulation assay (immuno-fluorescence); format: cell-based
Summary of the method: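 Compounds dispensed acoustically from DMSO stocks onto MCF-7 cells; cells fixed 20 min at room temperature, then automated immunostaining for ERα with overnight incubation at 4° C. Read-out is mean total ER fluorescence intensity normalized to cell number (intensity per cell), with curve fitting for concentration-response values.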

[7] = molecular target: estrogen receptor (ERα) in CAMA-1 cells (Homo sapiens (Human), UniProt P03372); assay: Western blotting assay, ER down-regulation in CAMA-1; format: cell-based; settings: 100 nM compound, 48 h, normalised to 100 nM fulvestrant
Summary of the method: as §1

[8] = molecular target: recombinant human Estrogen Receptor alpha ligand binding domain (ER alpha-LBD (GST)) (Homo sapiens (Human), UniProt P03372); assay: ERα binding assay (LanthaScreen TR-FRET competition); settings: TR-FRET, displacement of Fluormone ES2
Summary of the method: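 Competition binding to GST-tagged human ERα ligand-binding domain, read by LanthaScreen TR-FRET: Tb-anti-GST antibody labels the receptor and compounds displace a fluorescent tracer, lowering the signal. IC50 was taken from dose-response curve fitting.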

[9] = pH 7.4, 1-octanol/aqueous buffer

estrogen receptor (ERα) in CAMA-1 cells, sequence (P03372 whole entry): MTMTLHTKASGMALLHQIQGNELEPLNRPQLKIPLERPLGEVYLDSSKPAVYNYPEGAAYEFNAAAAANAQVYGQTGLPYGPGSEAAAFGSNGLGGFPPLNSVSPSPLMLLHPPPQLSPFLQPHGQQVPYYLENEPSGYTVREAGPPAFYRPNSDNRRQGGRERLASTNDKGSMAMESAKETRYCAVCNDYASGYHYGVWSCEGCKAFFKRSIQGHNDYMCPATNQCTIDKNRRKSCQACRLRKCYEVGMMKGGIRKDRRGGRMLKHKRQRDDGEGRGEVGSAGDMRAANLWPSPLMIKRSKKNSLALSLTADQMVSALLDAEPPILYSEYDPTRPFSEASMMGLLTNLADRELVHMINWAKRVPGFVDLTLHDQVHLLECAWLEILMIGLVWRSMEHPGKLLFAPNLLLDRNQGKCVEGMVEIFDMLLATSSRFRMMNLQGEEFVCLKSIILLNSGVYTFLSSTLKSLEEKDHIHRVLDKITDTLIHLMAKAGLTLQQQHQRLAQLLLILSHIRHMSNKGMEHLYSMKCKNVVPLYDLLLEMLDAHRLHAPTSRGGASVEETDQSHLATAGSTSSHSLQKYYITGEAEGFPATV
T1 sequence (P03372 whole entry): as above
recombinant human Estrogen Receptor alpha ligand binding domain (ER alpha-LBD (GST)), sequence (P03372 307-554): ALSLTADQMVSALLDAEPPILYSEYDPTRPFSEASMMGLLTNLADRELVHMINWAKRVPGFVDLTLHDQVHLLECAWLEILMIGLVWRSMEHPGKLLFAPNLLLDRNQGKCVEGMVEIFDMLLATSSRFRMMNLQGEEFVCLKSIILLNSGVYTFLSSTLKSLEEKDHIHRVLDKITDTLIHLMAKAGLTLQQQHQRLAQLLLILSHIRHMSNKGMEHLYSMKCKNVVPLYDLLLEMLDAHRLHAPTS

Row | SMILES | Papp at 2 h [1] [×10⁻⁶ cm/s] | efflux ratio at 2 h [1] | Human plasma protein binding (% free) [2] [% free] | solubility at 24 h [3] [µM] | logD [4, 9] | MCF7 Western % ER deg vs Fv [5] [%] | IC50 [6] [nM] | CAMA1 Western % ER deg vs Fv [7] [%] | IC50 [8] [nM] | logD ([4]; 1-octanol/aqueous buffer, pH 7.4, pH 7.4, 1-octanol/aqueous buffer)
1 | COc1cc(NC2CN(CCCF)C2)ccc1[C@@H]1c2ccc3[nH]ncc3c2C[C@@H](C)N1CC1(F)CC1 [Example 6, N-(4-((6S,8R)-7-((1-fluorocyclopropyl)methyl)-8-methyl-6,7,8,9-tetrahydro-3H-pyrazolo[4,3-f]isoquinolin-6-yl)-3-methoxyphenyl)-1-(3-fluoropropyl)azetidin-3-amine] | 0.9 | 28 | 34 | > 947 | 2.4 | 89 | 0.35 | 84 | 8.8 | –
2 | C[C@@H]1Cc2c(ccc3[nH]ncc23)[C@@H](c2ccc(NC3CN(CCCF)C3)cn2)N1CC(F)(F)CO [Example 16, 2,2-difluoro-3-((6S,8R)-6-(5-((1-(3-fluoropropyl)azetidin-3-yl)amino)pyridin-2-yl)-8-methyl-3,6,8,9-tetrahydro-7H-pyrazolo[4,3-f]isoquinolin-7-yl)propan-1-ol] | 1.6 | 9.7 | 64 | 982 (≈ 480 µg/mL) | 2 | 104 | 0.54 | 105 | 6.9 | –
3 | C[C@@H]1Cc2c(ccc3[nH]ncc23)[C@@H](c2ccc(NC3CN(CCCF)C3)cn2)N1CC(F)F [Example 25, 6-((6S,8R)-7-(2,2-difluoroethyl)-8-methyl-6,7,8,9-tetrahydro-3H-pyrazolo[4,3-f]isoquinolin-6-yl)-N-(1-(3-fluoropropyl)azetidin-3-yl)pyridin-3-amine] | 5 | 7.4 | 40 | 964 (≈ 442 µg/mL) | – | 98 | 0.33 | 96 | 4.1 | 2.5
4 | COc1cc(NC2CN(CCCF)C2)ccc1[C@@H]1c2ccc3[nH]ncc3c2C[C@@H](C)N1CC(C)(F)F [Example 19, N-(4-((6S,8R)-7-(2,2-difluoropropyl)-8-methyl-6,7,8,9-tetrahydro-3H-pyrazolo[4,3-f]isoquinolin-6-yl)-3-methoxyphenyl)-1-(3-fluoropropyl)azetidin-3-amine] | 4.2 | 2.6 | 4.3 | 152 (≈ 76.2 µg/mL) | 3.7 | 92 | 0.063 | 94 | 2.6 | –
